pEC50: −log10 of the molar value.
Columns and labels:
[1] = system: Eotaxin-3 release in human whole blood stimulated with IL-4; test: Human Whole Blood Eotaxin-3 Assay (IL-4 stimulated eotaxin-3 release); format: cell-based; conditions: IL-4 stimulation, 48 h, values given for compounds with >80% Emax, geometric mean
Summary of the method: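 Lithium-heparin human whole blood preincubated 2 h at 37° C with 4-fold serially diluted compounds (0.5% DMSO), then stimulated with recombinant human IL-4 ([…]) for 48 h. Eotaxin-3 (CCL26) in supernatant quantified by MSD immunoassay.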

STAT6 = target: T1, STAT6 (Homo sapiens, UniProt P42226); test: Stat6 Degrader Assay (HiBiT based, HeLa LgBiT clone 4.14); format: cell-based; conditions: HeLa LgBiT clone 4.14 HiBiT-STAT6, 4-24 h incubation; values given for compounds with >80% Emax; geometric mean; read-out: STAT6 degradation DC50
T1 construct: These cells express endogenous STAT6; host or cells: HeLa LgBiT clone 4.14
T1 sequence (P42226 1-847): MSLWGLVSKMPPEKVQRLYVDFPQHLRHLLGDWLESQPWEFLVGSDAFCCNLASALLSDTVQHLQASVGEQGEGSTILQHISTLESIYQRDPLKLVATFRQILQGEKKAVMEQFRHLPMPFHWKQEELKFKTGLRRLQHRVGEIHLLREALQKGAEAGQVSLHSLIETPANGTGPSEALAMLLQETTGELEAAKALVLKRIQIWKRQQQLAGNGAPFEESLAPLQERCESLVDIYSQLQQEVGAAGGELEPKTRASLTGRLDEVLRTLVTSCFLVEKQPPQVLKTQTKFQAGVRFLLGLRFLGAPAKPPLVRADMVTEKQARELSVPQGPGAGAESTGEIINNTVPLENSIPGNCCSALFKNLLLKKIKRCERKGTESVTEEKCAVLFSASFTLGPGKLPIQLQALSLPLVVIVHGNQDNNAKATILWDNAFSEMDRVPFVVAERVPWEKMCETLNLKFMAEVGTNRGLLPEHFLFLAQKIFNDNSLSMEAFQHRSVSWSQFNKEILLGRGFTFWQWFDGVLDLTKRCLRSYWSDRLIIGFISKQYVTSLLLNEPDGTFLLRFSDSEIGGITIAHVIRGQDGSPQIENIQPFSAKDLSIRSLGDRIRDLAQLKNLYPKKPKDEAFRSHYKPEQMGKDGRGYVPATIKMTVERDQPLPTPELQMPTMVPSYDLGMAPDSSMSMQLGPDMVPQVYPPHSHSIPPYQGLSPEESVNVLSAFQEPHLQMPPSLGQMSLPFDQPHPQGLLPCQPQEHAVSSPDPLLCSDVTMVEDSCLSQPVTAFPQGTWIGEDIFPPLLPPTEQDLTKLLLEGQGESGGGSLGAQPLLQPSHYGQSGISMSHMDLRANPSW
Summary of the method: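 HeLa LgBiT clone 4.14 cells with CRISPR HiBiT-tagged endogenous STAT6, 5000 cells/well, compound dosed then incubated 4-24 h at 37° C, 5% CO2. Nano-Glo substrate added, 0.5 h, luminescence read as non-degraded STAT6. Terfenadine 50 μM (cell kill) defines 100% degradation.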

Structure (SMILES) | pEC50 [1] | DC50 (STAT6)
C[C@H]1CN(Cc2ccc3c(c2)C2(CC2)C(=O)N3C2CCC(=O)NC2=O)CCN1CC1CCN(C(=O)c2cc(F)c(C3CCN(Cc4cc5c(-n6cc(F)c(N)c(F)c6=O)ccnc5n4C)CC3)c(F)c2)CC1 (stereo partly drawn) [Example 3u96, 3-(5′-(((S)-4-((1-(4-(1-((4-(4-amino-3,5-difluoro-2-oxopyridin-1 (2H)-yl)-1-methyl-1H-pyrrolo[2,3-b]pyridin-2-yl)methyl)piperidin-4-yl)-3,5-difluorobenzoyl)piperidin-4-yl)methyl)-3-methylpiperazin-1-yl)methyl)-2′-oxospiro[cyclopropane-1,3′-indolin]-1′-yl)piperidine-2,6-dione] | 9.00 | 4.1 nM
CNc1nc(=O)n(-c2ccnc3c2cc([C@H](C)N2CC=C(c4c(C)cc(C(=O)N5CCC(CN6CCN(Cc7ccc8c(c7)C7(CC7)C(=O)N8C7CCC(=O)NC7=O)C[C@@H]6C)CC5)cc4F)CC2)n3C)cc1F (stereo partly drawn) [Example 3u102, 3-(5′-(((S)-4-((1-(3-fluoro-4-(1-((S)-1-(4-(5-fluoro-4-(methylamino)-2-oxopyrimidin-1 (2H)-yl)-1-methyl-1H-pyrrolo[2,3-b]pyridin-2-yl)ethyl)-1,2,3,6-tetrahydropyridin-4-yl)-5-methylbenzoyl)piperidin-4-yl)methyl)-3-methylpiperazin-1-yl)methyl)-2′-oxospiro[cyclopropane-1,3′-indolin]-1′-yl)piperidine-2,6-dione] | 8.72 | 3.4 nM
CNc1cc(=O)n(-c2ccnc3c2cc([C@H](C)N2CC=C(c4c(C)cc(C(=O)N5CCC(CN6CCN(Cc7ccc8c(c7)n(C)c(=O)n8C7CCC(=O)NC7=O)CC6)CC5)cc4F)CC2)n3C)cc1F (stereo partly drawn) [Example 3u13, 3-(5-((4-((1-(3-fluoro-4-(1-((S)-1-(4-(5-fluoro-4-(methylamino)-2-oxopyridin-1 (2H)-yl)-1-methyl-1H-pyrrolo[2,3-b]pyridin-2-yl)ethyl)-1,2,3,6-tetrahydropyridin-4-yl)-5-methylbenzoyl)-piperidin-4-yl)methyl)piperazin-1-yl)methyl)-3-methyl-2-oxo-2,3-dihydro-1H-benzo[d]imidazol-1-yl)piperidine-2,6-dione] | 9.00 | 0.7 nM
C[C@H]1CN(Cc2ccc3c(c2)n(C)c(=O)n3C2CCC(=O)NC2=O)CCN1CC1CCN(C(=O)c2cc(F)c(C3CCN(Cc4cc5c(-n6ccc7c(c6=O)CCN7)ccnc5n4C)CC3)c(F)c2)CC1 (stereo partly drawn) [Example 3u311, 3-(5-(((S)-4-((1-(3,5-difluoro-4-(1-((1-methyl-4-(4-oxo-1,2,3,4-tetrahydro-5H-pyrrolo[3,2-c]pyridin-5-yl)-1H-pyrrolo[2,3-b]pyridin-2-yl)methyl)piperidin-4-yl)benzoyl)piperidin-4-yl)methyl)-3-methylpiperazin-1-yl)methyl)-3-methyl-2-oxo-2,3-dihydro-1H-benzo[d]imidazol-1-yl)piperidine-2,6-dione] | 9.40 | 0.5 nM
CNc1cc(=O)n(-c2ccnc3c2cc([C@H](C)N2CC=C(c4c(C)cc(C(=O)N(C)c5ccc(C6CCN(Cc7ccc8c(c7)C(C)(C)C(=O)N8C7CCC(=O)NC7=O)CC6)cc5)cc4F)CC2)n3C)cc1F (stereo partly drawn) [Example 3u233, N-(4-(1-((1-(2,6-dioxopiperidin-3-yl)-3,3-dimethyl-2-oxoindolin-5-yl)methyl)piperidin-4-yl)phenyl)-3-fluoro-4-(1-((S)-1-(4-(5-fluoro-4-(methylamino)-2-oxopyridin-1 (2H)-yl)-1-methyl-1H-pyrrolo[2,3-b]pyridin-2-yl)ethyl)-1,2,3,6-tetrahydropyridin-4-yl)-N,5-dimethylbenzamide] | 8.89 | 0.2 nM
CNc1ccn(-c2ccnc3c2cc(CN2CCC(c4c(F)cc(C(=O)N5CCC(CN6CCN(Cc7ccc8c(c7)C(C)(C)C(=O)N8[C@H]7CCC(=O)NC7=O)CC6)CC5)cc4F)CC2)n3C)c(=O)c1 (single isomer, unassigned) [Example 3u17] | 8.20 | 6 nM
